pKi: −log10 of the molar value.
molecular target: Cannabinoid receptor 2 (Homo sapiens, UniProt P34972); test: Displacement of [3H]-CP-55940 from human recombinant CB2 receptor expressed in HEK293 cells after 90 mins by Competition binding assay
Sequence (P34972 whole entry): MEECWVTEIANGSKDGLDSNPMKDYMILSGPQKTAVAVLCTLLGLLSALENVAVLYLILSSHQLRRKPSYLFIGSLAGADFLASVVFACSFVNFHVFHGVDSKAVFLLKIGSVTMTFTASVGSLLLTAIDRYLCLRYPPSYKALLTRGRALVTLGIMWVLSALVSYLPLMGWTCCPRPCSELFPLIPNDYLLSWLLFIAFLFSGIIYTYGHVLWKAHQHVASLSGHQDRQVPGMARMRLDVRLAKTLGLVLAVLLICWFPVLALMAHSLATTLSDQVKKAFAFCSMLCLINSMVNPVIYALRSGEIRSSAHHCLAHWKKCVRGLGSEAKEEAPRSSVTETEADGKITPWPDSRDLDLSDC

| SMILES | pKi |
| --- | --- |
| CCCCCn1c(=O)c(C(=O)NC23CC4CC(CC(C4)C2)C3)c(O)c2cc(C(C)C)ccc21 | 9.28 |
| CCCCCn1c(=O)c(C(=O)NC23CC4CC(CC(C4)C2)C3)c(O)c2ccc(F)cc21 | 9.03 |
| CC(C)c1ccc2c(c1)c(=O)c(C(=O)NC13CC4CC(CC(C4)C1)C3)cn2CCN(C)C | 6.84 |
| COCCOCn1cc(C(=O)NC23CC4CC(CC(C4)C2)C3)c(=O)c2cc(C(C)C)ccc21 | 6.32 |
| CC(C)c1ccc2c(c1)c(=O)c(C(=O)NC13CC4CC(CC(C4)C1)C3)cn2CCN1CCS(=O)(=O)CC1 | 5.71 |
| CN(C)CCn1cc(C(=O)NC23CC4CC(CC(C4)C2)C3)c(=O)c2ccc(F)cc21 | 7.22 |
| COCCOCn1cc(C(=O)NC23CC4CC(CC(C4)C2)C3)c(=O)c2ccc(F)cc21 | 7.25 |
| O=C(NC12CC3CC(CC(C3)C1)C2)c1cn(CCN2CCS(=O)(=O)CC2)c2cc(F)ccc2c1=O | 6.61 |
| CC(C)c1cc2c(=O)c(C(=O)NC34CC5CC(CC(C5)C3)C4)cn(CCN(C)C)c2cc1F | 7.96 |
| CCCCCn1c(=O)c(C(=O)NC23CC4CC(CC(C4)C2)C3)c(O)c2cc(C(C)C)c(F)cc21 | 7.18 |
| O=C(NCC1CCCCC1)c1c(O)c2ccccc2n(CCCCO)c1=O | 7.39 |
| O=C(NCc1ccc(F)cc1)c1c(O)c2cc(-c3ccco3)ccc2n(CCCCO)c1=O | 6.60 |
| COc1ccc(CNC(=O)c2c(O)c3cc(-c4cccs4)ccc3n(CCCCO)c2=O)cc1 | 5.65 |
| CCCCCn1c(=O)c(C(=O)NCc2ccc(OC)cc2)c(O)c2cc(-c3cccs3)ccc21 | 7.70 |
